Legend:
Assay in all cases: relative viability (nuclei count vs DMSO), 5 days (fraction); higher = more cells survive
[1] = compound: CC1=C(C(=O)N2C=CSC2=N1)CCN3CCC(=C(C4=CC=CC=C4)C5=CC=C(C=C5)F)CC3
Summary of the method: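 Hoechst staining, done together with fixation and permeabilisation, marked nuclei for 4× imaging and MetaXpress counting. This followed 5 days without medium change after lung cancer cell lines, kept overnight at 37 °C in 1536-well plates, were pinned with five library-drug doses (not always all listed) spaced by √10 on vehicle-anchored plates. Viability is the ratio of treated-well to vehicle-well nuclei, expressed as a median across plates. Plates passed only at control CV below 25% with at least one doubling.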

[2] = compound: CC1=C(C(=O)N2C=CSC2=N1)CCN3CCC(=C(C4=CC=CC=C4)C5=CC=C(C=C5)F)CC3 + O=C(c1cc(Cc2n[nH]c(=O)c3ccccc23)ccc1F)N1CCN(C(=O)C2CC2)CC1 [Olaparib] (partner 8 µM)
Summary of the method: (§1)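 Relative viability equals treated-well nuclei counts divided by vehicle-well nuclei counts. Counts came from 4× images of lung cancer cell lines grown in 1536-well plates for 5 days after pin-tool dosing on the day after seeding. Dosing used one drug alone or a fixed anchor-drug dose plus five library-drug doses (not always all listed) in √10 steps, and values are medians of duplicate plates.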

[3] = compound: CC1=C(C(=O)N2C=CSC2=N1)CCN3CCC(=C(C4=CC=CC=C4)C5=CC=C(C=C5)F)CC3 + CS(=O)(=O)CCNCc1ccc(-c2ccc3ncnc(Nc4ccc(OCc5cccc(F)c5)c(Cl)c4)c3c2)o1 [Lapatinib] (partner 2 µM)
Summary of the method: as §1

[4] = compound: CC1=C(C(=O)N2C=CSC2=N1)CCN3CCC(=C(C4=CC=CC=C4)C5=CC=C(C=C5)F)CC3 + COc1cc2c(Oc3ccc(NC(=O)C4(C(=O)Nc5ccc(F)cc5)CC4)cc3F)ccnc2cc1OCCCN1CCOCC1 [Foretinib] (partner 0.25 µM)
Summary of the method: as §1

[5] = compound: CC1=C(C(=O)N2C=CSC2=N1)CCN3CCC(=C(C4=CC=CC=C4)C5=CC=C(C=C5)F)CC3 + C[C@@H](Oc1cc(-c2cnn(C3CCNCC3)c2)cnc1N)c1c(Cl)ccc(F)c1Cl [Crizotinib] (partner 1 µM)
Summary of the method: as §1

[6] = compound: CC1=C(C(=O)N2C=CSC2=N1)CCN3CCC(=C(C4=CC=CC=C4)C5=CC=C(C=C5)F)CC3 + N=C(N)NC(=N)NCCc1ccccc1 [Phenformin] (partner 250 µM)
Summary of the method: as §1

[7] = compound: CC1=C(C(=O)N2C=CSC2=N1)CCN3CCC(=C(C4=CC=CC=C4)C5=CC=C(C=C5)F)CC3 + CC1(C)CCC(c2ccc(Cl)cc2)=C(CN2CCN(c3ccc(C(=O)NS(=O)(=O)c4ccc(N[C@H](CCN5CCOCC5)CSc5ccccc5)c(S(=O)(=O)C(F)(F)F)c4)cc3)CC2)C1 [Navitoclax] (partner 0.5 µM)
Summary of the method: as §1

[8] = compound: CC1=C(C(=O)N2C=CSC2=N1)CCN3CCC(=C(C4=CC=CC=C4)C5=CC=C(C=C5)F)CC3 + C[C@]1(O)C[C@@H](c2nc(-c3ccc4ccc(-c5ccccc5)nc4c3)c3c(N)nccn32)C1 [Linsitinib] (partner 1 µM)
Summary of the method: as §1

[9] = compound: CC1=C(C(=O)N2C=CSC2=N1)CCN3CCC(=C(C4=CC=CC=C4)C5=CC=C(C=C5)F)CC3 + Nc1ncn([C@H]2C[C@H](O)[C@@H](CO)O2)c(=O)n1 [Decitabine] (partner 2 µM)
Summary of the method: as §1

[10] = compound: CC1=C(C(=O)N2C=CSC2=N1)CCN3CCC(=C(C4=CC=CC=C4)C5=CC=C(C=C5)F)CC3 + Cc1nc(NC(=O)N2CCC[C@H]2C(N)=O)sc1-c1ccnc(C(C)(C)C(F)(F)F)c1 [Alpelisib] (partner 2 µM)
Summary of the method: as §1

[11] = compound: CC1=C(C(=O)N2C=CSC2=N1)CCN3CCC(=C(C4=CC=CC=C4)C5=CC=C(C=C5)F)CC3 + CS(=O)(=O)N1CCN(Cc2cc3nc(-c4cccc5[nH]ncc45)nc(N4CCOCC4)c3s2)CC1 [Pictilisib] (partner 1 µM)
Summary of the method: as §1

## A549
[1]; 0.08 µM
  relative viability: 0.841
[1]; 0.253 µM
  relative viability: 1.05
[1]; 0.8 µM
  relative viability: 1.01
[1]; 2.53 µM
  relative viability: 1.06
[1]; 8 µM
  relative viability: 0.433
[2]; first compound 0.253 µM
  relative viability: 0.212
[2]; first compound 0.8 µM
  relative viability: 0.385
[2]; first compound 2.53 µM
  relative viability: 0.36
[2]; first compound 8 µM
  relative viability: 0.151
[3]; first compound 0.08 µM
  relative viability: 1.06
[3]; first compound 0.253 µM
  relative viability: 0.884
[3]; first compound 0.8 µM
  relative viability: 0.922
[3]; first compound 2.53 µM
  relative viability: 1.23
[3]; first compound 8 µM
  relative viability: 0.797
[4]; first compound 0.08 µM
  relative viability: 0.954
[4]; first compound 0.253 µM
  relative viability: 0.982
[4]; first compound 0.8 µM
  relative viability: 1.03
[4]; first compound 2.53 µM
  relative viability: 0.97
[4]; first compound 8 µM
  relative viability: 0.763
[5]; first compound 0.08 µM
  relative viability: 0.855
[5]; first compound 0.253 µM
  relative viability: 0.777
[5]; first compound 0.8 µM
  relative viability: 0.665
[5]; first compound 2.53 µM
  relative viability: 0.64
[5]; first compound 8 µM
  relative viability: 0.579
[6]; first compound 0.08 µM
  relative viability: 0.101
[6]; first compound 0.253 µM
  relative viability: 0.203
[6]; first compound 0.8 µM
  relative viability: 0.206
[6]; first compound 2.53 µM
  relative viability: 0.112
[6]; first compound 8 µM
  relative viability: 0.151
[7]; first compound 0.08 µM
  relative viability: 1.32
[7]; first compound 0.253 µM
  relative viability: 1.19
[7]; first compound 0.8 µM
  relative viability: 1.3
[7]; first compound 2.53 µM
  relative viability: 1.37
[7]; first compound 8 µM
  relative viability: 0.673
[8]; first compound 0.253 µM
  relative viability: 0.61
[8]; first compound 0.8 µM
  relative viability: 0.658
[8]; first compound 2.53 µM
  relative viability: 0.432
[8]; first compound 8 µM
  relative viability: 0.309
[9]; first compound 0.08 µM
  relative viability: 0.206
[9]; first compound 0.253 µM
  relative viability: 0.249
[9]; first compound 0.8 µM
  relative viability: 0.266
[9]; first compound 2.53 µM
  relative viability: 0.282
[9]; first compound 8 µM
  relative viability: 0.194
[10]; first compound 0.08 µM
  relative viability: 0.915
[10]; first compound 0.253 µM
  relative viability: 0.923
[10]; first compound 0.8 µM
  relative viability: 0.747
[10]; first compound 2.53 µM
  relative viability: 0.871
[10]; first compound 8 µM
  relative viability: 0.275
[11]; first compound 0.08 µM
  relative viability: 0.643
[11]; first compound 0.253 µM
  relative viability: 0.434
[11]; first compound 0.8 µM
  relative viability: 0.467
[11]; first compound 2.53 µM
  relative viability: 0.567
[11]; first compound 8 µM
  relative viability: 0.422

From the supplement of paper PMC10307832
